Test: mn = molality of the nth substance listed, in mol/kg
Details: 101 kPa, Liquid; for speed of sound: Pulse-echo method

CCCC[P+](CCCC)(CCCC)CCCC.[Br-] [tetrabutylphosphonium bromide] + CC(C)=O
Details | mass density, 288.15 K [kg/m3] | mass density, 293.15 K [kg/m3] | mass density, 298.15 K [kg/m3] | mass density, 303.15 K [kg/m3] | mass density, 308.15 K [kg/m3] | mass density, 313.15 K [kg/m3] | speed of sound, 298.15 K [m/s]
m1 = 0.009972 | 796.516 | 790.843 | 785.133 | 779.385 | 773.586 | 767.735 | 1161.1
m1 = 0.01477 | 796.926 | 791.257 | 785.552 | 779.806 | 774.015 | 768.169 | –
m1 = 0.01959 | 797.328 | 791.666 | 785.967 | 780.225 | 774.439 | 768.597 | 1161.8
m1 = 0.02424 | 797.711 | 792.056 | 786.362 | 780.624 | 774.841 | 769.006 | –
m1 = 0.02891 | 798.099 | 792.447 | 786.758 | 781.026 | 775.247 | 769.416 | –
m1 = 0.03385 | 798.51 | 792.86 | 787.178 | 781.451 | 775.678 | 769.85 | 1162.7
m1 = 0.04786 | 799.673 | 794.037 | 788.362 | 782.648 | 776.885 | 771.075 | 1163.6
m1 = 0.0619 | 800.822 | 795.195 | 789.537 | 783.836 | 778.088 | 772.29 | 1164.5
m1 = 0.07794 | 802.136 | 796.525 | 790.878 | 785.191 | 779.457 | 773.675 | 1165.7
m1 = 0.09642 | 803.646 | 798.046 | 792.414 | 786.74 | 781.022 | 775.257 | 1166.8
m1 = 0.123 | 805.822 | 800.247 | 794.64 | 788.995 | 783.255 | 777.557 | 1168.4
m1 = 0.1559 | 808.487 | 802.938 | 797.356 | 791.736 | 786.072 | 780.36 | 1170.4
m1 = 0.1912 | 811.381 | 805.858 | 800.306 | 794.713 | 789.077 | 783.39 | 1172.7
m1 = 0.2209 | 813.828 | 808.333 | 802.798 | 797.229 | 791.622 | 785.97 | 1174.3
m1 = 0.2576 | 816.813 | 811.345 | 805.845 | 800.309 | 794.734 | 789.113 | 1176.6
m1 = 0.2914 | 819.596 | 814.151 | 808.679 | 803.169 | 797.619 | 792.03 | 1178.7

CCCCO [butan-1-ol] + CCCC[P+](CCCC)(CCCC)CCCC.[Br-]
m2 = 0
Details | mass density [kg/m3]
288.15 K | 813.269
293.15 K | 809.472
298.15 K | 805.659
303.15 K | 801.817
308.15 K | 797.945
313.15 K | 794.037
323.15 K | 786.081

CCCC[P+](CCCC)(CCCC)CCCC.[Br-] [tetrabutylphosphonium bromide] + CCCCO
Details | mass density, 288.15 K [kg/m3] | mass density, 293.15 K [kg/m3] | mass density, 298.15 K [kg/m3] | mass density, 303.15 K [kg/m3] | mass density, 308.15 K [kg/m3] | mass density, 313.15 K [kg/m3] | mass density, 323.15 K [kg/m3] | speed of sound, 298.15 K [m/s]
m1 = 0.009722 | 813.972 | 810.179 | 806.37 | 802.533 | 798.665 | 794.76 | 786.817 | –
m1 = 0.01455 | 814.314 | 810.525 | 806.716 | 802.882 | 799.017 | 795.113 | 787.175 | –
m1 = 0.01936 | 814.655 | 810.867 | 807.061 | 803.227 | 799.366 | 795.464 | 787.531 | 1240.1
m1 = 0.0242 | 814.996 | 811.209 | 807.404 | 803.574 | 799.712 | 795.815 | 787.89 | –
m1 = 0.02918 | 815.348 | 811.563 | 807.767 | 803.93 | 800.07 | 796.175 | 788.253 | –
m1 = 0.0369 | 815.894 | 812.109 | 808.382 | 804.48 | 800.621 | 796.727 | 788.815 | 1241
m1 = 0.05364 | 817.07 | 813.293 | 809.495 | 805.673 | 801.825 | 797.943 | 790.046 | 1242
m1 = 0.07129 | 818.321 | 814.549 | 810.756 | 806.941 | 803.095 | 799.213 | 791.333 | 1243
m1 = 0.09251 | 819.818 | 816.049 | 812.265 | 808.455 | 804.62 | 800.743 | 792.887 | 1244.1
m1 = 0.1101 | 821.058 | 817.297 | 813.514 | 809.71 | 805.879 | 802.009 | 794.162 | 1245.1
m1 = 0.1395 | 823.126 | 819.37 | 815.598 | 811.804 | 807.981 | 804.127 | 796.295 | 1246.7
m1 = 0.1776 | 825.836 | 822.089 | 818.326 | 814.54 | 810.729 | 806.888 | 799.08 | 1248.8
m1 = 0.218 | 828.688 | 824.949 | 821.197 | 817.424 | 813.625 | 809.794 | 802.026 | 1251.1
m1 = 0.2537 | 831.238 | 827.51 | 823.765 | 820.001 | 816.21 | 812.388 | 804.641 | 1252.9
m1 = 0.2955 | 834.232 | 830.511 | 826.778 | 823.022 | 819.242 | 815.431 | 807.714 | 1255.3
m1 = 0.3323 | 836.873 | 833.16 | 829.434 | 825.687 | 821.922 | 818.127 | 810.433 | 1257.1

CC#N [acetonitrile] + CCCC[P+](CCCC)(CCCC)CCCC.[Br-]
m2 = 0
Details | mass density [kg/m3]
288.15 K | 787.275
293.15 K | 781.893
298.15 K | 776.493
303.15 K | 771.067
308.15 K | 765.61
313.15 K | 760.119
323.15 K | 749.031
